{"source": "patent US8883856B2", "about": "“Compositions and methods for the treatment of inflammatory diseases using topoisomerase inhibitors” (priority 2000, dated 2014)", "test_system": "neutrophils", "experiment": "Neutrophil apoptosis, agarose gel DNA laddering", "format": "cell-based, human", "excerpt": "The inflammation associated with many forms of arthritis is thought to arise from the presence of large numbers of immune cells, such as neutrophils, in the synovial joints of humans. The extended inflammation associated with crystal induced arthritis arises from the interaction of neutrophils with crystals in the synovial joint. One reason the extended duration of the inflammation in this disease may be due to the inhibition of neutrophil apoptosis by crystals. This inhibition may result in the neutrophils remaining in the joint for extended periods. Compounds that overcome this crystal induced suppression of neutrophil apoptosis therefore allow the more rapid clearance of these cells from the joint with the appropriate abatement of inflammation. The process of apoptosis involves the endonuclease driven cleavage of DNA into fragments which may be visualized as a ladder of bands in an agarose gel electrophoresis experiment. Other assays that may be used include caspase 3 quantitation or measurements of cytoplasmic DNA concentration. […] Agents that inhibit caspase activation levels or reduce cytoplasmic DNA are pro-survival (potentially inflammatory) and agents that promote are pro-apoptotic and anti-inflammatory. The use of these methods and their role in neutrophil affected inflammation is described in detail in Tudan et al. J Rheumatol. 27 p 2463-72. 2000. […]"}
{"molecule": "CC[C@@]1(O)C(=O)OCc2c1cc1n(c2=O)Cc2cc3ccccc3nc2-1", "note": "[camptothecin]", "values": [{"measurement": "apoptosis in neutrophils first incubated with CPPD crystals", "setting": "CPPD crystals 1 hour, then drug 0.1 uM 4 hours", "result": "extensive apoptosis"}, {"measurement": "DNA laddering (apoptosis) in neutrophils", "setting": "drug alone, 0.1 uM, 4 hours", "result": "extensive DNA laddering"}]}
